Source: US6537948B1, “Uracil compounds and use thereof” (Sumitomo Chemical Company, Limited, priority 2000, dated 2003)

Key:
Type in all cases: in vivo
[1] = tested on: ivyleaf morningglory (Ipomoea hederacea); experiment: Test Example 2: soil surface treatment of field; details: soil surface spray, dosage 500 g/ha, 19 days after application
Source text: (§1) A cylindrical plastic pot having a diameter of 10 cm and a depth of 10 cm was filled with soil and then seeded with ivyleaf morningglory (Ipomoea hederacea) and velvetleaf (Abutilon theophrasti). Then, each of the compounds 1-2, 1-42, 1-48, 2-2, 2-7, 2-42, 2-45, 3-2, 3-12, 4-7, 4-85, 5-12-R, 5-12-S, 5-17, 6-2, 7-2, 7-6, 7-8, 7-12, 7-48, 7-50, 7-84, 7-118, 7-119, 7-125, 9-7, 9-27 and 9-45 was formulated into an emulsifiable concentrate according to Formulation Example 2 and then diluted to the prescribed amount with water, and the dilution was uniformly sprayed over the surface of the soil with a sprayer at a rate of 1000 liters per hectare. After the application, the test plants were grown in the greenhouse for 19 days, and the herbicidal activity was examined.

[2] = tested on: velvetleaf (Abutilon theophrasti); experiment: Test Example 2: soil surface treatment of field; details: soil surface spray, dosage 500 g/ha, 19 days after application
Source text: as §1

[3] = tested on: ivyleaf morningglory (Ipomoea hederacea); experiment: Test Example 1: foliar treatment of field; details: foliar spray, dosage 125 g/ha, 16 days after application
Protocol: (§2) A cylindrical plastic pot having a diameter of 10 cm and a depth of 10 cm was filled with soil and then seeded with ivyleaf morningglory (Ipomoea hederacea) and velvetleaf (Abutilon theophrasti). These test plants were grown in a greenhouse for 10 days. Then, each of compounds 1-2, 1-42, 1-45, 1-48, 2-2, 2-7, 2-42, 2-45, 3-2, 3-12, 4-7, 4-85, 5-12-R, 5-12-S, 5-17, 6-2, 7-2, 7-6, 7-8, 7-12, 7-48, 7-50, 7-84, 7-118, 7-119, 7-125, 9-7, 9-27 and 9-45 was formulated into an emulsifiable concentrate according to Formulation Example 2 and then diluted to the prescribed amount with water containing a spreading agent and the dilution was uniformly sprayed over the foliage of the test plants with a sprayer at a rate of 1000 liters per hectare. After the application, the test plants were grown in the greenhouse for 16 days, and the herbicidal activity was determined.

[4] = tested on: velvetleaf (Abutilon theophrasti); experiment: Test Example 1: foliar treatment of field; details: foliar spray, dosage 125 g/ha, 16 days after application
Protocol: as §2

COC(=O)C(C)Oc1cccc(Oc2cc(-n3c(=O)cc(C(F)(F)F)n(C)c3=O)c(F)cc2Cl)n1 (centres unmarked) [Compound 2-42, 2-{2-chloro-4-fluoro-5-[3-methyl-2,6-dioxo-4-(trifluoromethyl)-1,2,3,6-tetrahydropyrimidin-1-yl]phenoxy}-6-{1-(methoxycarbonyl)ethoxy}pyridine]
completely controlled: growth of ivyleaf morningglory (herbicidal activity) [1] | growth of velvetleaf (herbicidal activity) [2] | growth of ivyleaf morningglory (herbicidal activity) [3] | growth of velvetleaf (herbicidal activity) [4]

COC(=O)[C@H](C)Oc1n[nH]c(C)c1Oc1cc(-n2c(=O)cc(C(F)(F)F)n(C)c2=O)c(F)cc1Cl [Compound 5-12-S, (S)-3-{1-(methoxycarbonyl)ethoxy}-4-{2-chloro-4-fluoro-5-[3-methyl-2,6-dioxo-4-(trifluoromethyl)-1,2,3,6-tetrahydropyrimidin-1-yl]phenoxy}-5-methylpyrazole]
completely controlled: growth of ivyleaf morningglory (herbicidal activity) [1] | growth of velvetleaf (herbicidal activity) [2] | growth of ivyleaf morningglory (herbicidal activity) [3] | growth of velvetleaf (herbicidal activity) [4]

COC(=O)C(C)Oc1cc(Oc2cc(-n3c(=O)cc(C(F)(F)F)n(C)c3=O)c(F)cc2Cl)ncn1 (centres unmarked) [Compound 3-12, methyl 2-([4-{2-chloro-4-fluoro-5-[3-methyl-2,6-dioxo-4-(trifluoromethyl)-1,2,3,6-tetrahydropyrimidin-1-yl]phenoxy}pyrimidin-6-yl]oxy)propionate]
completely controlled: growth of ivyleaf morningglory (herbicidal activity) [1] | growth of velvetleaf (herbicidal activity) [2] | growth of ivyleaf morningglory (herbicidal activity) [3] | growth of velvetleaf (herbicidal activity) [4]

CONC(=O)COc1ncccc1Oc1cc(-n2c(=O)cc(C(F)(F)F)n(C)c2=O)c(F)cc1Cl [Compound 7-84, 3-{2-chloro-4-fluoro-5-[3-methyl-2,6-dioxo-4-(trifluoromethyl)-1,2,3,6-tetrahydropyrimidin-1-yl]phenoxy}-2-[(methoxyaminocarbonyl)methoxy]pyridine]
completely controlled: growth of ivyleaf morningglory (herbicidal activity) [1] | growth of velvetleaf (herbicidal activity) [2] | growth of ivyleaf morningglory (herbicidal activity) [3] | growth of velvetleaf (herbicidal activity) [4]

COC(=O)COc1n[nH]c(C)c1Oc1cc(-n2c(=O)cc(C(F)(F)F)n(C)c2=O)c(F)cc1Cl [Compound 5-17, 3-(methoxycarbonyl)methoxy-4-{2-chloro-4-fluoro-5-[3-methyl-2,6-dioxo-4-(trifluoromethyl)-1,2,3,6-tetrahydropyrimidin-1-yl]phenoxy}-5-methylpyrazole]
completely controlled: growth of ivyleaf morningglory (herbicidal activity) [1] | growth of velvetleaf (herbicidal activity) [2] | growth of ivyleaf morningglory (herbicidal activity) [3] | growth of velvetleaf (herbicidal activity) [4]

COC(=O)C(C)Oc1ccnc(Oc2cc(-n3c(=O)cc(C(F)(F)F)n(C)c3=O)c(F)cc2Cl)n1 (centres unmarked) [Compound 1-2, methyl 2-([2-{2-chloro-4-fluoro-5-[3-methyl-2,6-dioxo-4-(trifluoromethyl)-1,2,3,6-tetrahydropyrimidin-1-yl]phenoxy}pyrimidin-4-yl]oxy)propionate]
completely controlled: growth of ivyleaf morningglory (herbicidal activity) [1] | growth of velvetleaf (herbicidal activity) [2] | growth of ivyleaf morningglory (herbicidal activity) [3] | growth of velvetleaf (herbicidal activity) [4]

COC(=O)[C@@H](C)Oc1n[nH]c(C)c1Oc1cc(-n2c(=O)cc(C(F)(F)F)n(C)c2=O)c(F)cc1Cl [Compound 5-12-R, (R)-3-{1-(methoxycarbonyl)ethoxy}-4-{2-chloro-4-fluoro-5-[3-methyl-2,6-dioxo-4-(trifluoromethyl)-1,2,3,6-tetrahydropyrimidin-1-yl]phenoxy}-5-methylpyrazole]
completely controlled: growth of ivyleaf morningglory (herbicidal activity) [1] | growth of velvetleaf (herbicidal activity) [2] | growth of ivyleaf morningglory (herbicidal activity) [3] | growth of velvetleaf (herbicidal activity) [4]

COC(=O)COc1nc(C)ncc1Oc1cc(-n2c(=O)cc(C(F)(F)F)n(C)c2=O)c(F)cc1Cl [Compound 4-85, 5-{2-chloro-4-fluoro-5-[3-methyl-2,6-dioxo-4-(trifluoromethyl)-1,2,3,6-tetrahydropyrimidin-1-yl]phenoxy}-4-(methoxycarbonyl)methoxy-2-methylpyrimidine]
completely controlled: growth of ivyleaf morningglory (herbicidal activity) [1] | growth of velvetleaf (herbicidal activity) [2] | growth of ivyleaf morningglory (herbicidal activity) [3] | growth of velvetleaf (herbicidal activity) [4]

COC(=O)COc1cccnc1Oc1cc(-n2c(=O)cc(C(F)(F)F)n(C)c2=O)c(F)cc1Cl [Compound 2-7, 2-{2-chloro-4-fluoro-5-[3-methyl-2,6-dioxo-4-(trifluoromethyl)-1,2,3,6-tetrahydropyrimidin-1-yl]phenoxy}-3-(methoxycarbonyl)methoxypyridine]
completely controlled: growth of ivyleaf morningglory (herbicidal activity) [1] | growth of velvetleaf (herbicidal activity) [2] | growth of ivyleaf morningglory (herbicidal activity) [3] | growth of velvetleaf (herbicidal activity) [4]

CC(C)=NOC(=O)COc1ncccc1Oc1cc(-n2c(=O)cc(C(F)(F)F)n(C)c2=O)c(F)cc1Cl [Compound 7-118, 3-{2-chloro-4-fluoro-5-[3-methyl-2,6-dioxo-4-(trifluoromethyl)-1,2,3,6-tetrahydropyrimidin-1-yl]phenoxy}-2-isopropylidenaminoxycarbonylmethoxypyridine]
completely controlled: growth of ivyleaf morningglory (herbicidal activity) [1] | growth of velvetleaf (herbicidal activity) [2] | growth of ivyleaf morningglory (herbicidal activity) [3] | growth of velvetleaf (herbicidal activity) [4]

COC(=O)COc1cccc(Oc2cc(-n3c(=O)cc(C(F)(F)F)n(C)c3=O)c(F)cc2Cl)n1 [Compound 2-45, 2-{2-chloro-4-fluoro-5-[3-methyl-2,6-dioxo-4-(trifluoromethyl)-1,2,3,6-tetrahydropyrimidin-1-yl]phenoxy}-6-(methoxycarbonyl)methoxypyridine]
completely controlled: growth of ivyleaf morningglory (herbicidal activity) [1] | growth of velvetleaf (herbicidal activity) [2] | growth of ivyleaf morningglory (herbicidal activity) [3] | growth of velvetleaf (herbicidal activity) [4]
